According to ChEMBL document CHEMBL1201862, “PubChem BioAssay data set” (2004):
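All cell lines were grown in 96-well plates and treated with compound for 48 hours. At the GI50, growth is halved.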 Calls of active or inactive are those of the source. Cut-off read from the data, not from the text of the source: active = GI50 up to about 1.1 µM and inactive = higher.

Key:
Assay in all cases: DTP human tumour cell line panel, 48 h
[1] = tested on: Malme-3M
[2] = tested on: OVCAR-3
[3] = tested on: ACHN
[4] = tested on: 786-0
[5] = tested on: NCI-H460
[6] = tested on: SF-268
[7] = tested on: SK-MEL-5
[8] = tested on: NCI-H522
[9] = tested on: OVCAR-8
[10] = tested on: HL-60
[11] = tested on: DU-145
[12] = tested on: MDA-MB-435
[13] = tested on: HCT-15
[14] = tested on: TK-10
[15] = tested on: SK-MEL-2
[16] = tested on: A498
[17] = tested on: SR
[18] = tested on: NCI/ADR-RES
[19] = tested on: SNB-19
[20] = tested on: RXF 393
[21] = tested on: IGROV-1
[22] = tested on: SW-620
[23] = tested on: KM12
[24] = tested on: COLO 205
[25] = tested on: EKVX
[26] = tested on: MDA-N
[27] = tested on: T47D
[28] = tested on: UO-31
[29] = tested on: NCI-H226
[30] = tested on: K562
[31] = tested on: OVCAR-5
[32] = tested on: HOP-62
[33] = tested on: SK-OV-3
[34] = tested on: PC-3
[35] = tested on: CAKI-1
[36] = tested on: HOP-92
[37] = tested on: U-251
[38] = tested on: HCC 2998
[39] = tested on: OVCAR-4
[40] = tested on: BT-549
[41] = tested on: UACC-62
[42] = tested on: HT-29
[43] = tested on: UACC-257
[44] = tested on: HCT-116
[45] = tested on: MCF7
[46] = tested on: SF-539
[47] = tested on: RPMI-8226
[48] = tested on: SK-MEL-28
[49] = tested on: NCI-H23
[50] = tested on: SF-295
[51] = tested on: A549
[52] = tested on: SN12C
[53] = tested on: SNB-75
[54] = tested on: M14
[55] = tested on: MDA-MB-231
[56] = tested on: MOLT-4
[57] = tested on: LOX IMVI
[58] = tested on: CCRF-CEM

O=C1/C(=C/c2ccccc2)CCc2ccc(Cl)nc21
GI50 [1]: 11 µM (inactive)
GI50 [2]: 21.8 µM (inactive)
GI50 [3]: 11.9 µM (inactive)
GI50 [4]: 7.18 µM (inactive)
GI50 [5]: 18.2 µM (inactive)
GI50 [6]: 12.1 µM (inactive)
GI50 [7]: 5.31 µM (inactive)
GI50 [8]: 2.76 µM (inactive)
GI50 [9]: 7.8 µM (inactive)
GI50 [10]: 16.8 nM (active)
GI50 [11]: 10 µM (inactive)
GI50 [12]: 6.5 µM (inactive)
GI50 [13]: 3.52 µM
GI50 [14]: 13.9 µM (inactive)
GI50 [15]: 16.7 µM (inactive)
GI50 [16]: 18.3 µM (inactive)
GI50 [17]: 2.8 µM (inactive)
GI50 [18]: 19.6 µM (inactive)
GI50 [19]: 15 µM (inactive)
GI50 [20]: 8.2 µM (inactive)
GI50 [21]: 4.5 µM (inactive)
GI50 [22]: 3.98 µM (inactive)
GI50 [23]: 2.59 µM (inactive)
GI50 [24]: 19.7 µM (inactive)
GI50 [25]: 17.9 µM (inactive)
GI50 [26]: 4 µM (inactive)
GI50 [27]: 4.85 µM (inactive)
GI50 [28]: 7.64 µM (inactive)
GI50 [29]: 20.6 µM (inactive)
GI50 [30]: 2.17 µM (inactive)
GI50 [31]: 17.3 µM (inactive)
GI50 [32]: 19.7 µM (inactive)
GI50 [33]: 31.6 µM (inactive)
GI50 [34]: 11.7 µM (inactive)
GI50 [35]: 3.77 µM (inactive)
GI50 [36]: 15.8 µM (inactive)
GI50 [37]: 3.11 µM (inactive)
GI50 [38]: 17 µM (inactive)
GI50 [39]: 22.5 µM (inactive)
GI50 [40]: 13.9 µM (inactive)
GI50 [41]: 10.4 µM (inactive)
GI50 [42]: 1.92 µM (inactive)
GI50 [43]: 5.4 µM (inactive)
GI50 [44]: 2.55 µM (inactive)
GI50 [45]: 1.79 µM (inactive)
GI50 [46]: 3.61 µM (inactive)
GI50 [47]: 2.84 µM (inactive)
GI50 [48]: 14.7 µM (inactive)
GI50 [49]: 16.6 µM (inactive)
GI50 [50]: 17.2 µM (inactive)
GI50 [51]: 16.6 µM (inactive)
GI50 [52]: 6.03 µM (inactive)
GI50 [53]: 17.2 µM (inactive)
GI50 [54]: 8.04 µM (inactive)
GI50 [55]: 15.2 µM (inactive)
GI50 [56]: 2.28 µM (inactive)
GI50 [57]: 2.19 µM (inactive)
GI50 [58]: 1.43 µM (inactive)
